According to patent US10597388B2, “Pyridazinone herbicides” (FMC CORPORATION, priority 2014, dated 2020):

Assays:
Assay type in all cases: in vivo
[1] = system: Russian thistle (Salsola kali); test: Test D controlled growth environment herbicide test, pre- and postemergence
Description: (§1) Seeds of plant species selected from bluegrass (annual bluegrass, Poa annua), blackgrass (Alopecurus myosuroides), Canada thistle (Cirsium arvense), canarygrass (Phalaris minor), chickweed (common chickweed, Stellaria media), geranium, cutleaf (cutleaf geranium, Geranium dissectum), galium (catchweed bedstraw, Galium aparine), bromegrass, downy (downy bromegrass, Bromus tectorum), field poppy (Papaver rhoeas), field violet (Viola arvensis), foxtail, green (green foxtail, Setaria viridis), deadnettle (henbit deadnettle, Lamium amplexicaule), ryegrass, Italian (Italian ryegrass, Lolium multiflorum), kochia (Kochia scoparia), lambsquarters (Chenopodium album), oilseed rape (Brassica napus), pigweed (Amaranthus retroflexus), chamomile (scentless chamomile, Matricaria inodora), Russian thistle (Salsola kali), speedwell (bird's-eye speedwell, Veronica persica), barley, spring (spring barley, Hordeum vulgare), wheat, spring (spring wheat, Triticum aestivum), buckwheat, wild (wild buckwheat, Polygonum convolvulus), mustard, wild (wild mustard, Sinapis arvensis), oat, wild (wild oat, Avena fatua), radish, wild (wild radish, Raphanus raphanistrum), windgrass (Apera spica-venti), barley, winter (winter barley, Hordeum vulgare), and wheat, winter (winter wheat, Triticum aestivum) were planted into a silt loam soil and treated preemergence with test chemicals formulated in a non-phytotoxic solvent mixture which included a surfactant.
(§2) At the same time, these species were planted in pots containing Redi-Earth® planting medium (Scotts Company, 14111 Scottslawn Road, Marysville, Ohio 43041) comprising spaghnum peat moss, vermiculite, wetting agent and starter nutrients and treated with postemergence applications of the test chemicals formulated in the same manner. Plants ranged in height from 2 to 18 cm (1- to 4-leaf stage). Treated plants and controls were maintained in a controlled growth environment for 14 to 21 d after which time all species were compared to controls and visually evaluated. Plant response ratings, summarized in Table D, are based on a scale of 0 to 100 where 0 is no effect and 100 is complete control. A dash (-) response means no test result.

[2] = system: barley, winter (winter barley, Hordeum vulgare); test: as above
Description: as §1, §2

[3] = system: bluegrass (annual bluegrass, Poa annua); test: as above
Description: as §1, §2

[4] = system: field violet (Viola arvensis); test: as above
Description: as §1, §2

[5] = system: oat, wild (wild oat, Avena fatua); test: as above
Description: as §1, §2

[6] = system: pigweed (Amaranthus retroflexus); test: as above
Description: as §1, §2

[7] = system: radish, wild (wild radish, Raphanus raphanistrum); test: as above
Description: as §1, §2

[8] = system: speedwell (bird's-eye speedwell, Veronica persica); test: as above
Description: as §1, §2

[9] = system: wheat, winter (winter wheat, Triticum aestivum); test: as above
Description: as §1, §2

[10] = system: windgrass (Apera spica-venti); test: as above
Description: as §1, §2

[11] = system: waterhemp_RES2 (ALS & HPPD resistant common waterhemp, Amaranthus rudis); test: Test E greenhouse herbicide test, postemergence
How it was run: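 Postemergence spray on potted plants, 1–4 leaves, 2–18 cm; greenhouse 14–21 d; visual rating vs controls, 0 (no effect) to 100 (complete control).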

[12] = Postemergence, 31 g ai/ha, scale 0 to 100 (0 no effect, 100 complete control)
[13] = Postemergence, 125 g ai/ha, visual rating on scale 0 (no effect) to 100 (complete control), 14 to 21 d
[14] = Postemergence, 250 g ai/ha, scale 0 to 100 (0 no effect, 100 complete control)
[15] = Preemergence, 62 g ai/ha, scale 0 to 100 (0 no effect, 100 complete control)
[16] = Preemergence, 125 g ai/ha, scale 0 to 100 (0 no effect, 100 complete control)
[17] = Preemergence, 250 g ai/ha, scale 0 to 100, 0 no effect, 100 complete control
[18] = postemergence, 62 g ai/ha, scale 0 to 100, 0 no effect, 100 complete control

## Cc1ccc2sc(Br)c(-c3c(O)c(C)nn(C)c3=O)c2c1 [Compound 79]
[1]; [12]
  Russian Thistle plant response rating: 50
[1]; [13]
  Plant response rating, Russian Thistle: 55
[1]; [14]
  Plant response rating, Russian Thistle: 65
[1]; Preemergence, 31 g ai/ha
  Plant response rating (scale of 0 to 100), Russian Thistle: 0
[1]; [15]
  Plant response rating, Russian Thistle: 70
[1]; [16]
  Plant response rating, Russian Thistle: 75
[1]; [17]
  Plant response rating, Russian Thistle: 100
[1]; [18]
  Plant response rating, Russian Thistle: 55
[2]; [12]
  Barley, Winter plant response rating: 0
[2]; [13]
  Plant response rating, Barley, Winter: 0
[2]; [14]
  Plant response rating, Barley, Winter: 5
[2]; Preemergence, 31 g ai/ha
  Plant response rating (scale of 0 to 100), Barley, Winter: 0
[2]; [15]
  Plant response rating, Barley, Winter: 0
[2]; [16]
  Plant response rating, Barley, Winter: 0
[2]; [17]
  Plant response rating, Barley, Winter: 10
[2]; [18]
  Plant response rating, Barley, Winter: 0
[3]; [12]
  Bluegrass plant response rating: 5
[3]; [13]
  Plant response rating, Bluegrass: 10
[3]; [14]
  Plant response rating, Bluegrass: 15
[3]; Preemergence, 31 g ai/ha
  Plant response rating (scale of 0 to 100), Bluegrass: 10
[3]; [15]
  Plant response rating, Bluegrass: 10
[3]; [16]
  Plant response rating, Bluegrass: 25
[3]; [17]
  Plant response rating, Bluegrass: 35
[3]; [18]
  Plant response rating, Bluegrass: 10
[4]; [12]
  Field Violet plant response rating: 75
[4]; [13]
  Plant response rating, Field Violet: 85
[4]; [14]
  Plant response rating, Field Violet: 95
[4]; Preemergence, 31 g ai/ha
  Plant response rating (scale of 0 to 100), Field Violet: 80
[4]; [15]
  Plant response rating, Field Violet: 85
[4]; [16]
  Plant response rating, Field Violet: 98
[4]; [17]
  Plant response rating, Field Violet: 100
[4]; [18]
  Plant response rating, Field Violet: 75
[5]; [12]
  Oat, Wild plant response rating: 70
[5]; [13]
  Plant response rating, Oat, Wild: 80
[5]; [14]
  Plant response rating, Oat, Wild: 85
[5]; Preemergence, 31 g ai/ha
  Plant response rating (scale of 0 to 100), Oat, Wild: 80
[5]; [15]
  Plant response rating, Oat, Wild: 80
[5]; [16]
  Plant response rating, Oat, Wild: 85
[5]; [17]
  Plant response rating, Oat, Wild: 90
[5]; [18]
  Plant response rating, Oat, Wild: 70
[6]; [12]
  Pigweed plant response rating: 100
[6]; [13]
  Plant response rating, Pigweed: 100
[6]; [14]
  Plant response rating, Pigweed: 100
[6]; Preemergence, 31 g ai/ha
  Plant response rating (scale of 0 to 100), Pigweed: 45
[6]; [15]
  Plant response rating, Pigweed: 100
[6]; [16]
  Plant response rating, Pigweed: 100
[6]; [17]
  Plant response rating, Pigweed: 100
[6]; [18]
  Plant response rating, Pigweed: 100
[7]; [12]
  Radish, Wild plant response rating: 0
[7]; [13]
  Plant response rating, Radish, Wild: 0
[7]; [14]
  Plant response rating, Radish, Wild: 65
[7]; Preemergence, 31 g ai/ha
  Plant response rating (scale of 0 to 100), Radish, Wild: 25
[7]; [15]
  Plant response rating, Radish, Wild: 25
[7]; [16]
  Plant response rating, Radish, Wild: 45
[7]; [17]
  Plant response rating, Radish, Wild: 55
[7]; [18]
  Plant response rating, Radish, Wild: 0
[8]; [12]
  Speedwell plant response rating: 25
[8]; [13]
  Plant response rating, Speedwell: 35
[8]; [14]
  Plant response rating, Speedwell: 65
[8]; [18]
  Plant response rating, Speedwell: 30
[9]; [12]
  Wheat, Winter plant response rating: 0
[9]; [13]
  Plant response rating, Wheat, Winter: 0
[9]; [14]
  Plant response rating, Wheat, Winter: 0
[9]; Preemergence, 31 g ai/ha
  Plant response rating (scale of 0 to 100), Wheat, Winter: 0
[9]; [15]
  Plant response rating, Wheat, Winter: 0
[9]; [16]
  Plant response rating, Wheat, Winter: 0
[9]; [17]
  Plant response rating, Wheat, Winter: 0
[9]; [18]
  Plant response rating, Wheat, Winter: 0
[10]; [12]
  Windgrass plant response rating: 15
[10]; [13]
  Plant response rating, Windgrass: 35
[10]; [14]
  Plant response rating, Windgrass: 65
[10]; Preemergence, 31 g ai/ha
  Plant response rating (scale of 0 to 100), Windgrass: 25
[10]; [15]
  Plant response rating, Windgrass: 40
[10]; [16]
  Plant response rating, Windgrass: 50
[10]; [17]
  Plant response rating, Windgrass: 80
[10]; [18]
  Plant response rating, Windgrass: 20
[11]; 31 g ai/ha, visual, scale 0 no effect to 100 complete control
  Plant response rating, Waterhemp_RES2: 20
[11]; 62 g ai/ha, scale 0 to 100 (0 no effect, 100 complete control)
  Plant response rating, Waterhemp_RES2: 15
[11]; 125 g ai/ha, scale 0 to 100 (0 no effect, 100 complete control)
  Plant response rating, Waterhemp_RES2: 15
[11]; 250 g ai/ha, scale 0 to 100 (0 no effect, 100 complete control)
  Plant response rating, Waterhemp_RES2: 55
